Experiment [1] concerns the target T1, recombinant human sEH (Homo sapiens, UniProt P34913).
T1 sequence (P34913 1-555): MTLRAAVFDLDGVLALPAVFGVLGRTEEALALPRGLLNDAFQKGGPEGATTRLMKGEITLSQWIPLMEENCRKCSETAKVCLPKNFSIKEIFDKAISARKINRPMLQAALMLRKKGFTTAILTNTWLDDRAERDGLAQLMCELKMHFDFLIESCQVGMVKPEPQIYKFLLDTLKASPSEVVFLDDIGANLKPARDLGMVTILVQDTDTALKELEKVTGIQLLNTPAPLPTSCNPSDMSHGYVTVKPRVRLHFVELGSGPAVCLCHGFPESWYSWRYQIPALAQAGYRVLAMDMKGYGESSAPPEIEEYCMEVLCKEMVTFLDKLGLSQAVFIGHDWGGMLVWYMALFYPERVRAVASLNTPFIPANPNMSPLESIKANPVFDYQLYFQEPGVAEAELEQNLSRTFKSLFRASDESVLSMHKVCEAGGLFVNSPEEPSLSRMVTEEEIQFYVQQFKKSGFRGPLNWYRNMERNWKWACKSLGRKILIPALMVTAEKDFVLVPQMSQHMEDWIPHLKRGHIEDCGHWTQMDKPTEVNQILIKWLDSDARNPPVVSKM
Nature of the experiment: fluorescence-based sEH activity assay with PHOME substrate. In kind it is biochemical. Particulars: for inhibition at 50 µM: read-out: sEH % inhibition at indicated conc. The text has this:
(§1) This assay is based on a reporter construct containing a firefly luciferase under the control of the FXR response element from bile salt export protein (BSEP). FXR and its hetero dimer partner retinoid X receptor (RXR) as expression constructs under the control of a CMV promoter as well as a constitutively expressed renilla luciferase (SV40 promoter) for normalization and toxicity control were co-transfected. […] The sEH inhibitory potency of the test compounds was quantified in a fluorescence-based assay using recombinant enzyme and the fluorogenic sEH substrate PHOME^37 that is hydrolyzed to a fluorescent 6-methoxynaphtaldehyde by sEH.
The sEH inhibitory potency of the compounds were determined in a fluorescence-based 96-well sEH activity assay using recombinant human enzyme^50,51. Non-fluorescent PHOME (3-phenylcyano-(6-methoxy-2-naphthalenyl)methyl ester 2-oxiraneacetic acid; Cayman Chemicals) which can be hydrolyzed by the sEH to fluorescent 6-methoxynaphthaldehyde served as substrate. Recombinant human sEH (in Bis-Tris buffer, pH 7, with 0.1 mg/mL BSA containing a final concentration of 0.01% Triton-X 100) was pre-incubated with test compounds (in DMSO, final DMSO concentration: 1%) for 30 min at room temperature. […] A blank control (no protein and no compound) as well as a positive control (no compound) were executed. All experiments were conducted in triplicate and repeated in at least three independent experiments. For IC50 calculation, dose-response curves of increasing compound concentrations were recorded.

Experiment [2] concerns the target T2, human FXR (Homo sapiens, UniProt Q96RI1).
T2 construct: characterized in a full-length (fl) FXR reporter gene assay in HeLa cells; expressed in transfected cells; host or cells: HeLa
T2 sequence (Q96RI1 1-486): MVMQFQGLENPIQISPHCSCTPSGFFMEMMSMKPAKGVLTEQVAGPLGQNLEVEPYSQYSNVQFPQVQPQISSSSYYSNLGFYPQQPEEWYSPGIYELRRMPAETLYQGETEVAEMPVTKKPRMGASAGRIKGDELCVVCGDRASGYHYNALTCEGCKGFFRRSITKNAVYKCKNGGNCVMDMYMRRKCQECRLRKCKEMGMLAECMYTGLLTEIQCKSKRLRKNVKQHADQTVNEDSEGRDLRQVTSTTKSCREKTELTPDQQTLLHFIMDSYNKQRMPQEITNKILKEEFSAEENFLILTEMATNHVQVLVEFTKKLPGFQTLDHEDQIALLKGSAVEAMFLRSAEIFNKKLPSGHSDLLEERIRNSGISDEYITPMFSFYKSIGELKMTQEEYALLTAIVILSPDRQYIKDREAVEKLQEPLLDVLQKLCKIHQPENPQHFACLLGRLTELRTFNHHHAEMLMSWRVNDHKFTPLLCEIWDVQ
T2 sequence (P19793 1-462 partner): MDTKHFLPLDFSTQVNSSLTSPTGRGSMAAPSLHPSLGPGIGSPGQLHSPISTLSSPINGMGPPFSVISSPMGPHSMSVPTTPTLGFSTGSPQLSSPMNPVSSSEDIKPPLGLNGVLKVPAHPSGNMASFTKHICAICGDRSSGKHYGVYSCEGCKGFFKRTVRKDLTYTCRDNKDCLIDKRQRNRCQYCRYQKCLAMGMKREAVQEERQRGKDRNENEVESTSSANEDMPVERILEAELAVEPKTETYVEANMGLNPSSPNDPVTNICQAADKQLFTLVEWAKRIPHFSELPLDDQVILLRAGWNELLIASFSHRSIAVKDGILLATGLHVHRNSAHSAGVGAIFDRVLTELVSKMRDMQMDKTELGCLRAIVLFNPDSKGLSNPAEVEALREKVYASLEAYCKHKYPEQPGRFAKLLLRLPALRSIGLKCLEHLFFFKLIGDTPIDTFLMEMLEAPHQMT
Briefly: full-length FXR reporter gene (transactivation) assay in HeLa cells. It counts as cell-based. Particulars: for Emax: HeLa, read-out: FXR activation max. rel. activation (converted); for FXR % activation at indicated conc.: 50 μM, relative to GW4064 (1c) at 3 μM = 100%.
Text: as §1
Plasmids: pcDNA3-hFXR contains the sequence of human FXR and was already published elsewhere.^47 pGL3 basic (Promega Corporation, Fitchburg, Wis., USA) was used as a reporter plasmid, with a shortened construct of the promotor of the bile salt export protein (BSEP) cloned into the SacI/NheI cleavage site in front of the luciferase gene.^48 pRL-V40 (Promega) was transfected as a control for normalization of transfection efficiency and cell growth. pSG5-hRXR was already published elsewhere as well.^49
Assay procedure: HeLa cells were grown in DMEM high glucose supplemented with 10% FCS, sodium pyruvate (1 mM), penicillin (100 U/mL) and streptomycin (100 μg/mL) at 37° C. and 5% CO2. […] Transient transfection of HeLa cells with BSEP-pGL3, pRL-SV40 and the expression plasmids pcDNA3-hFXR and pSG5-hRXR was carried out using calcium phosphate transfection method. […] Each concentration was tested in triplicate wells and each experiment was repeated independently at least three times. […] Luminescence was measured with a Tecan Infinite M200 luminometer (Tecan Deutschland GmbH, Crailsheim, Germany). Normalization of transfection efficiency and cell growth was done by division of firefly luciferase data by renilla luciferase data multiplied by 1000 resulting in relative light units (RLU). Fold activation was obtained by dividing the mean RLU of the tested compound at a respective concentration by the mean RLU of untreated control. […] EC50 and standard error of the mean values were calculated with the mean relative activation values of at least three independent experiments by SigmaPlot 10.0 (Systat Software GmbH, Erkrath, Germany) using a four parameter logistic regression.
On the technique in general: A reporter such as luciferase makes a cellular process visible.

SMILES strings stand for the structures. Several values for one entry are separate records, joined by “and”; a condition that tells them apart may be missing. Equal values may be shown once.

As to `CC(C)(C)c1ccc(C(=O)NCc2ccc(N)cc2Cl)cc1` [69a, N-(4-Amino-2-chlorobenzyl)-4-(tert-butyl)benzamide], the IC50 in experiment [1] (recombinant human sEH, PHOME, read-out: sEH inhibition IC50) stood at 40 ± 6 nM. The Emax in experiment [2] was 29%. Further, the EC50 in experiment [2] (full-length FXR reporter gene assay, HeLa cells, read-out: FXR activation EC50) is 46 nM and 45 nM. Take `Cc1ccc(C(=O)NCc2ccc(C(=O)O)cc2)cc1C` [compound 10]: the inhibition at 50 µM in experiment [1] was 52 ± 1%. Moreover, the Emax in experiment [2] is 12%. Consider `O=C(O)c1ccc(CNC(=O)c2cccc(-c3ccccc3)c2)cc1` [compound 12], for which, in experiment [2], the Emax is 14%. Same read-out and setting: under `O=C(O)c1ccc(CNC(=O)c2ccc(-c3ccccc3)cc2)cc1` [compound 13] stands 24%.

With `O=C(O)c1ccc(CNC(=O)c2ccc(Cl)c(Cl)c2)cc1` [compound 14], the “FXR % activation at indicated conc.” value in experiment [2] was “inactive (50 μM)”. For the compound `COc1ccc(C(=O)NCc2ccc(C(=O)O)cc2)cc1OC` [compound 15], the inhibition at 50 µM in experiment [1] was 26 ± 2%. Also, in experiment [2], the Emax was 18%. In the same order, the values of `O=C(O)c1ccc(CNC(=O)c2ccc3ccccc3c2)cc1` [compound 17] are 45 ± 1% and 18%. `CC(C)(C)c1ccc(C(=O)NCc2ccc(C(=O)O)cc2)cc1` [compound 18]: the Emax in experiment [2] is 13%. Consider `COc1cc(C(=O)NCc2ccc(C(=O)O)cc2)ccc1C(C)(C)C` [compound 20], for which the Emax in experiment [2] was 23%. The same measure, in the same setting: the result for `CC(C)(C)c1ccc(NC(=O)Nc2ccc(C(=O)O)cc2)cc1` [compound 21] reads 14%.

With `CC(C)(C)c1ccc(C(=O)NCc2cccc(C(=O)O)c2)cc1` [compound 22], the inhibition at 50 µM in experiment [1] was found to be 26 ± 2%. For the same compound, the Emax in experiment [2] was 14%.

As for `CC(C)(C)c1ccc(C(=O)NCc2ccc(CC(=O)O)cc2)cc1` [compound 23], in experiment [2], the Emax is 19%. On to `CC(C)(C)c1ccc(C(=O)NCc2ccc(CCC(=O)O)cc2)cc1` [compound 24], for which the Emax in experiment [2] is 16%. `CC(C)(C)c1ccc(C(=O)NCc2ccc(OCC(=O)O)cc2)cc1` [compound 25]: the Emax in experiment [2] is 21%. Consider `Cc1cc(CNC(=O)c2ccc(C(C)(C)C)cc2)ccc1C(=O)O` [compound 26], for which the inhibition at 50 µM in experiment [1] came out at 53 ± 1%. In experiment [2], the Emax was 14%. Turning to `CC(C)(C)c1ccc(C(=O)NCc2ccc(C(=O)O)c(F)c2)cc1` [compound 27], the Emax in experiment [2] was 28%. As for `Cc1cc(C(=O)O)ccc1CNC(=O)c1ccc(C(C)(C)C)cc1` [compound 29], the “FXR % activation at indicated conc.” value in experiment [2] was “inactive (50 μM)”. Turning to `CC(C)(C)c1ccc(C(=O)NCc2ccc(C(=O)O)cc2F)cc1` [compound 30], the Emax in experiment [2] was 26%. Still for that read-out and setting: under `CC(C)(C)c1ccc(C(=O)NCc2ccc(C(=O)O)cc2Cl)cc1` [compound 31] stands 25%. With `CC(C)(C)c1ccc(C(=O)NCc2ccc(CO)cc2)cc1` [compound 33], the “FXR % activation at indicated conc.” value in experiment [2] was “inactive (50 μM)”. Consider `CC(C)(C)c1ccc(C(=O)NCc2ccc(C=O)cc2)cc1` [compound 34], for which the Emax in experiment [2] was 22%. On the same count and under the same terms, the result for `CC(=O)c1ccc(CNC(=O)c2ccc(C(C)(C)C)cc2)cc1` [compound 35] reads 29%.

On to `CC(C)(C)c1ccc(C(=O)NCc2ccc(C#N)cc2)cc1` [compound 36], for which, in experiment [2], the “FXR % activation at indicated conc.” value was “inactive (50 μM)”. Consider `CC(C)(C)c1ccc(C(=O)NCc2ccc(C(N)=O)cc2)cc1` [compound 37], for which the Emax in experiment [2] was 27%. Take `CNC(=O)c1ccc(CNC(=O)c2ccc(C(C)(C)C)cc2)cc1` [compound 38]: in experiment [2], the Emax was 29%. The same measure, in the same setting: the result for `CN(C)C(=O)c1ccc(CNC(=O)c2ccc(C(C)(C)C)cc2)cc1` [compound 39] reads 17 ± 100%; that for `CC(=O)Nc1ccc(CNC(=O)c2ccc(C(C)(C)C)cc2)cc1` [compound 40], 31%.

With `CC(C)(C)c1ccc(C(=O)NCc2ccc(NC(=O)C(F)(F)F)cc2)cc1` [compound 41], in experiment [2], the Emax was 20%. On to `CC(C)(C)c1ccc(C(=O)NCc2ccc(N)cc2)cc1` [compound 42], for which, in experiment [2], the “FXR % activation at indicated conc.” value is “inactive (50 μM)”. Consider `CC(C)(C)c1ccc(C(=O)NCc2ccc(-c3nnn[nH]3)cc2)cc1` [compound 43], for which the Emax in experiment [2] is 23%.

In the case of `CC(C)(C)c1ccc(C(=O)NCc2ccc(S(N)(=O)=O)cc2)cc1` [compound 44], the Emax in experiment [2] is 16%.

Regarding `CC(=O)NS(=O)(=O)c1ccc(CNC(=O)c2ccc(C(C)(C)C)cc2)cc1` [compound 45], in experiment [2], the “FXR % activation at indicated conc.” value is “inactive (50 μM)”. On to `CC(C)(C)c1ccc(C(=O)NCc2ccc(NS(C)(=O)=O)cc2)cc1` [compound 46], for which the Emax in experiment [2] was 22%. The same measure, in the same setting: the result for `COc1ccc(CNC(=O)c2ccc(C(C)(C)C)cc2)cc1` [compound 47] reads 19%. The same measure, in the same setting: the result for `CCOc1ccc(CNC(=O)c2ccc(C(C)(C)C)cc2)cc1` [compound 48] reads 31%; that for `CC(C)Oc1ccc(CNC(=O)c2ccc(C(C)(C)C)cc2)cc1` [compound 49], 26%. In the case of `CC(C)(C)c1ccc(C(=O)NCc2ccc(OC(F)(F)F)cc2)cc1` [compound 50], the Emax in experiment [2] is 26%.

Take `C[S+]([O-])c1ccc(CNC(=O)c2ccc(C(C)(C)C)cc2)cc1` (stereo not drawn) [compound 52]: in experiment [2], the Emax was 24%.

For `CC(C)(C)c1ccc(C(=O)NCc2ccc(S(C)(=O)=O)cc2)cc1` [compound 53], the Emax in experiment [2] is 34%. Same read-out and setting: the result for `CC(C)(C)c1ccc(C(=O)NCc2ccc(SC(F)(F)F)cc2)cc1` [compound 54] reads 19%; that for `CC(C)(C)c1ccc(C(=O)NCc2ccc(S(N)(=O)=O)cc2F)cc1` [compound 55], 34%.

By IC50 is commonly meant the midpoint of a concentration-inhibition curve. One may read the EC50 as the concentration that produces a half-maximal response. One may read the inhibition as the drop in the measured response relative to a control, in per cent.

(Values after patent US20200172473A1, “DUAL MODULATORS OF FARNESOID X RECEPTOR AND SOLUBLE EPOXIDE HYDROLASE” (JOHANN WOLFGANG GOETHE-UNIVERSITÄT FRANKFURT AM MAIN, priority 2017, published 2020).)
